In PubChem BioAssay AID1963827 (Molecular Pharmacology Branch, DTP, NCI, 2024):

Test system: 994946-033-R-J1-PDC complex spheroid viability
Test: Anticancer human tumor 994946-033-R-J1-PDC patient-derived melanoma cell line growth inhibition [POLQ]
Details: for IC50: curve of first compound; for viability, T/C: stronger effect = lower value
In short: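 Patient-derived tumour cells were co-cultured with HUVEC and mesenchymal stem cells as multicellular spheroids at 37 °C. They were treated with POLQ inhibitors (novobiocin, ART-558, RP6685) alone or combined with other agents. Top concentrations were at or near clinical Cmax (otherwise 10 microM; SN-38 at 1 microM), decreasing in half-log steps.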

[1] = second compound 0.0316 µM, first compound 0.0316 µM
[2] = second compound 0.0316 µM, first compound 0.1 µM
[3] = second compound 0.0316 µM, first compound 0.316 µM
[4] = second compound 0.0316 µM, first compound 1 µM
[5] = second compound 0.0316 µM, first compound 3.16 µM
[6] = second compound 0.0316 µM, first compound 10 µM
[7] = second compound 0.1 µM, first compound 0.0316 µM
[8] = second compound 0.1 µM, first compound 0.1 µM
[9] = second compound 0.1 µM, first compound 0.316 µM
[10] = second compound 0.1 µM, first compound 1 µM
[11] = second compound 0.1 µM, first compound 3.16 µM
[12] = second compound 0.1 µM, first compound 10 µM
[13] = second compound 0.316 µM, first compound 0.0316 µM
[14] = second compound 0.316 µM, first compound 0.1 µM
[15] = second compound 0.316 µM, first compound 0.316 µM
[16] = second compound 0.316 µM, first compound 1 µM
[17] = second compound 0.316 µM, first compound 3.16 µM
[18] = second compound 0.316 µM, first compound 10 µM
[19] = second compound 1 µM, first compound 0.0316 µM
[20] = second compound 1 µM, first compound 0.1 µM
[21] = second compound 1 µM, first compound 0.316 µM
[22] = second compound 1 µM, first compound 1 µM
[23] = second compound 1 µM, first compound 3.16 µM
[24] = second compound 1 µM, first compound 10 µM
[25] = second compound 3.16 µM, first compound 0.0316 µM
[26] = second compound 3.16 µM, first compound 0.1 µM
[27] = second compound 3.16 µM, first compound 0.316 µM
[28] = second compound 3.16 µM, first compound 1 µM
[29] = second compound 3.16 µM, first compound 3.16 µM
[30] = second compound 3.16 µM, first compound 10 µM
[31] = second compound 10 µM, first compound 0.0316 µM
[32] = second compound 10 µM, first compound 0.1 µM
[33] = second compound 10 µM, first compound 0.316 µM
[34] = second compound 10 µM, first compound 1 µM
[35] = second compound 10 µM, first compound 3.16 µM
[36] = second compound 10 µM, first compound 10 µM
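Note: spheroids exposed to drugs for 7 days.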
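Throughout, for viability, T/C: 100% = DMSO vehicle treated spheroids.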

`CCCS(=O)(=O)Nc1ccc(F)c(C(=O)c2c[nH]c3ncc(-c4ccc(Cl)cc4)cc23)c1F` + Cc1cccc(N(C)C(=O)C2C(O)CCN2c2nc(C)cc(C(F)(F)F)c2C#N)c1 showed an IC50 (second compound 0.0316 µM) of 6.38 µM, an IC50 (second compound 0.1 µM) of 6.17 µM and an IC50 (second compound 0.316 µM) of 6.51 µM. For the same compound, the IC50 (second compound 1 µM) was 4.95 µM, the IC50 (second compound 3.16 µM) was 6.02 µM and the IC50 (second compound 10 µM) was 5.54 µM. It also gave a viability, T/C [1] of 67.5%, a viability, T/C [2] of 102% and a viability, T/C [3] of 94.3%. For the same compound, the viability, T/C [4] was 81.1%, the viability, T/C [5] was 85.7% and the viability, T/C [6] was 27.1%. For the same compound, the viability, T/C [7] was 91.3%, the viability, T/C [8] was 110% and the viability, T/C [9] was 67.4%. For the same compound, the viability, T/C [10] was 115%, the viability, T/C [11] was 88.2% and the viability, T/C [12] was 22.4%. The viability, T/C [13] was 78.7%, the viability, T/C [14] was 101% and the viability, T/C [15] was 95%. It also gave a viability, T/C [16] of 104%, a viability, T/C [17] of 99.3% and a viability, T/C [18] of 22.9%. The viability, T/C [19] was 64.8%, the viability, T/C [20] was 71.4% and the viability, T/C [21] was 81.6%. For the same compound, the viability, T/C [22] was 93%, the viability, T/C [23] was 63.7% and the viability, T/C [24] was 20.9%. The viability, T/C [25] was 103%, the viability, T/C [26] was 76.3% and the viability, T/C [27] was 97.3%. For the same compound, the viability, T/C [28] was 84.9%, the viability, T/C [29] was 95.3% and the viability, T/C [30] was 17.4%. It also gave a viability, T/C [31] of 88.4%, a viability, T/C [32] of 84.6% and a viability, T/C [33] of 112%. The viability, T/C [34] was 95.6%, the viability, T/C [35] was 80.9% and the viability, T/C [36] was 17.1%.
`CNCc1ccc(-c2[nH]c3cc(F)cc4c3c2CCNC4=O)cc1` + Nc1ccc(C#CCN(C(=O)Cc2ncc(C(F)(F)F)cc2C(F)(F)F)c2ccc(F)cc2)nn1 showed an IC50 (second compound 0.0316 µM) of over 10 µM, an IC50 (second compound 0.1 µM) of over 10 µM and an IC50 (second compound 0.316 µM) of over 10 µM. The IC50 (second compound 1 µM) was over 10 µM, the IC50 (second compound 3.16 µM) was over 10 µM and the IC50 (second compound 10 µM) was over 10 µM. It also gave a viability, T/C [1] of 97.4%, a viability, T/C [2] of 84.1% and a viability, T/C [3] of 84%. It also gave a viability, T/C [4] of 85.3%, a viability, T/C [5] of 94.5% and a viability, T/C [6] of 79%. For the same compound, the viability, T/C [7] was 77.9%, the viability, T/C [8] was 83.1% and the viability, T/C [9] was 99.7%. For the same compound, the viability, T/C [10] was 61.5%, the viability, T/C [11] was 95.8% and the viability, T/C [12] was 70.6%. For the same compound, the viability, T/C [13] was 81.7%, the viability, T/C [14] was 86.4% and the viability, T/C [15] was 90%. For the same compound, the viability, T/C [16] was 68.8%, the viability, T/C [17] was 77.2% and the viability, T/C [18] was 69.1%. For the same compound, the viability, T/C [19] was 73.4%, the viability, T/C [20] was 69.2% and the viability, T/C [21] was 107%. The viability, T/C [22] was 77.9%, the viability, T/C [23] was 103% and the viability, T/C [24] was 63.1%. It also gave a viability, T/C [25] of 105%, a viability, T/C [26] of 105% and a viability, T/C [27] of 85%. The viability, T/C [28] was 107%, the viability, T/C [29] was 74.2% and the viability, T/C [30] was 77.5%. For the same compound, the viability, T/C [31] was 72%, the viability, T/C [32] was 74.2% and the viability, T/C [33] was 88.7%. For the same compound, the viability, T/C [34] was 113%, the viability, T/C [35] was 96% and the viability, T/C [36] was 78.3%.
Work on `CCc1cc2c(N3CCc4c(cc(Cn5ccnc5)cc4-c4cn(C)nc4C(F)(F)F)C3=O)cc(C)nc2c(OC)n1` + COC1C(OC(N)=O)C(O)C(Oc2ccc3c(O)c(NC(=O)c4ccc(O)c(CC=C(C)C)c4)c(=O)oc3c2C)OC1(C)C yielded an IC50 (second compound 0.0316 µM) of over 10 µM, an IC50 (second compound 0.1 µM) of over 10 µM and an IC50 (second compound 0.316 µM) of over 10 µM. The IC50 (second compound 1 µM) was over 10 µM, the IC50 (second compound 3.16 µM) was over 10 µM and the IC50 (second compound 10 µM) was over 10 µM. The viability, T/C [1] was 105%, the viability, T/C [2] was 86.1% and the viability, T/C [3] was 89.6%. For the same compound, the viability, T/C [4] was 83%, the viability, T/C [5] was 73.4% and the viability, T/C [6] was 64%. For the same compound, the viability, T/C [7] was 83.5%, the viability, T/C [8] was 71.5% and the viability, T/C [9] was 75.1%. For the same compound, the viability, T/C [10] was 86.9%, the viability, T/C [11] was 83.2% and the viability, T/C [12] was 75.1%. For the same compound, the viability, T/C [13] was 111%, the viability, T/C [14] was 90.2% and the viability, T/C [15] was 86.1%. It also gave a viability, T/C [16] of 51.9%, a viability, T/C [17] of 54% and a viability, T/C [18] of 70.5%. The viability, T/C [19] was 100%, the viability, T/C [20] was 71.3% and the viability, T/C [21] was 86.9%. It also gave a viability, T/C [22] of 82.2%, a viability, T/C [23] of 88.9% and a viability, T/C [24] of 91%. It also gave a viability, T/C [25] of 66%, a viability, T/C [26] of 100% and a viability, T/C [27] of 80.8%. It also gave a viability, T/C [28] of 78.2%, a viability, T/C [29] of 73.1% and a viability, T/C [30] of 63.8%. It also gave a viability, T/C [31] of 68.1%, a viability, T/C [32] of 93.4% and a viability, T/C [33] of 64.6%. It also gave a viability, T/C [34] of 82.2%, a viability, T/C [35] of 51.1% and a viability, T/C [36] of 69.9%.
